The values below come from patent publication US8835445B2, “Dihydrofolate reductase inhibitors” (Trius Therapeutics, Inc., priority 2010, dated 2014).

Molecules are shown by their SMILES. ≈ marks a conversion by molar mass, not a printed value. Like-named read-outs stand apart in the source and are kept apart here.

One assay deals with S. aureus. The assay can be described thus: Antibacterial activity (MIC), whole-cell bacterial growth inhibition. It is filed as cell-based, Staphylococcus aureus. As to conditions: Staphylococcus aureus. The source says:
Antibacterial activity as measured by the minimal inhibitory concentrations (MIC) and minimal bactericidal concentrations of compounds are well known (see., e.g., National Committee for Clinical Laboratory Standards 2000 Performance standards for antimicrobial disk susceptibility tests: approved standard, 7th ed. M2-A7, vol. 20, no. 1, Committee for Clinical Laboratory Standards, Wayne, Pa.) In vitro testing for antibacterial activity may be accomplished through use of a whole-cell bacterial growth inhibition assay. For example, an […] assay identifies a substance that inhibits bacterial growth. Microtiter plates are prepared with serial dilutions of the test compound, adding to the preparation a given amount of growth substrate, and providing a preparation of bacteria. Inhibition of bacterial growth is determined, for example, by observing changes in optical densities of the bacterial cultures. Inhibition of bacterial growth is determined, for example, by comparing (in the presence and absence of a test compound) the rate of growth or the absolute growth of bacterial cells. Inhibition includes a reduction of one of the above measurements by at least 20%.

A further assay has as its target human DHFR (Homo sapiens (Human), UniProt P00374). Nature of the assay: DHFR enzymatic inhibition (Ki), human DHFR. Type of assay: biochemical.
The next assay has as its target S. aurues DHFR (Staphylococcus aureus, UniProt P0A017). The assay can be described thus: biochemical. It is filed as biochemical.
Where [1] appears, read: S. aureus in 20% serum, read-out: MIC in μg/ml S. aureus in 20% serum.
Setting [2] is: S. aureus, read-out: MIC in μg/ml S. aureus.

Chain of human DHFR (P00374 whole entry): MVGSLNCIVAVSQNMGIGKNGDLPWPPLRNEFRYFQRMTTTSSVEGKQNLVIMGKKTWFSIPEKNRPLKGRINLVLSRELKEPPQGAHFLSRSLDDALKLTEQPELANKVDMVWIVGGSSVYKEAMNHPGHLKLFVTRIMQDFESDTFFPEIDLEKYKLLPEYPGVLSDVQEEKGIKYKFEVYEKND

A word on the Ki: it is a dissociation constant, usually derived from enzyme kinetics or from competition with a known ligand. A low value points to tighter binding. `Cc1cc2nc(-c3ccsc3)n(-c3ccc4c(N)nc(N)nc4c3)c2cc1C` [Compound 21, 7-(5,6-dimethyl-2-(thiophen-3-yl)-1H-benzo[d]-imidazol-1-yl)quinazoline-2,4-diamine]: the MIC with S. aureus (setting [1]) was 0.25 µg/mL (≈ 0.647 µM); with S. aureus (setting [2]), at most 0.125 µg/mL. Besides, the results for the inhibition constant Ki at human DHFR and on S. aurues DHFR (S. aureus DHFR) were 663 nM and 0.012 nM, respectively.
On to `Cc1cc2c(N)nc(N)nc2cc1-c1cccc(C#N)c1` [Compound 11, 3-(2,4-diamino-6-methylquinazolin-7-yl)benzonitrile], for which the MIC with S. aureus (setting [1]) turned out to be 2 µg/mL (≈ 7.26 µM); with S. aureus (setting [2]), 1 µg/mL (≈ 3.63 µM). Moreover, the results for the Ki at human DHFR and at S. aurues DHFR (S. aureus DHFR) were 55 nM and 1.2 nM, respectively.
The matching figures for `Cc1cc2nc(-c3ccccn3)n(-c3ccc4c(N)nc(N)nc4c3)c2cc1C` [Compound 16, 7-(5,6-dimethyl-2-(pyridin-2-yl)-1H-benzo[d]-imidazol-1-yl)quinazoline-2,4-diamine]: 0.25 µg/mL (≈ 0.655 µM), at most 0.125 µg/mL, 572 nM and 0.022 nM.
As for `COc1ccc(OC)c(-c2ccc3c(N)nc(N)nc3c2)c1` [Compound 3, 7-(2,5-dimethoxyphenyl) quinazoline-2,4-diamine], the MIC in the assay on S. aureus (setting [1]) turned out to be 8 µg/mL (≈ 27 µM); with S. aureus (setting [2]), 4 µg/mL (≈ 13.5 µM). In addition, the Ki turned out to be 345 nM on human DHFR and 4 nM on S. aurues DHFR.
For `CCOc1ccc(-c2cccc(NS(C)(=O)=O)c2)cc1-c1ccc2c(N)nc(N)nc2c1` [Compound 30, N-(3′-(2,4-diaminoquinoazlin-7-yl)-4′-ethoxybiphenyl-3-yl)methanesulfonamide], the MIC in the assay with S. aureus (setting [1]) is 2 µg/mL (≈ 4.45 µM); in the assay with S. aureus (setting [2]), at most 0.5 µg/mL. The inhibition constant (Ki) at human DHFR was found to be 5.8 nM; on S. aurues DHFR (S. aureus DHFR), 0.02 nM.
The matching figures for `COC(=O)c1ccc2c(c1)nc(-c1nccs1)n2-c1ccc2c(N)nc(N)nc2c1` [Compound 32, methyl 1-(2,4-diaminoquinazolin-7-yl)-2-(thiazol-2-yl)-1H-benzo[d]imidazole-5-carboxylate]: 2 µg/mL (≈ 4.79 µM), 0.25 µg/mL (≈ 0.599 µM), 53.1 nM and 0.021 nM.
As for `Cc1cc2c(N)nc(N)nc2cc1-c1cccc(CC#N)c1` [Compound 13, 2-(3-(2,4-diamino-6-methylquinazolin-7-yl)-phenyl)acetonitrile], the MIC in the assay on S. aureus (setting [1]) came out at 2 µg/mL (≈ 6.91 µM); in the assay with S. aureus (setting [2]), 0.5 µg/mL (≈ 1.73 µM). In addition, the inhibitory constant (Ki) worked out at 44 nM on human DHFR and 0.5 nM at S. aurues DHFR (S. aureus DHFR).
Taken in the same sequence, the figures for `Cc1cc2c(N)nc(N)nc2cc1-c1cnc2[nH]ccc2c1` [Compound 27, 6-methyl-7-(1H-pyrrolo[2,3-b]pyridin-5-yl)quin-azoline-2,4-diamine] were 4 µg/mL (≈ 13.8 µM), 4 µg/mL (≈ 13.8 µM), 235 nM and 2.6 nM.
In the case of `Cc1cc2nc(-c3nccs3)n(-c3cc4nc(N)nc(N)c4cc3Cl)c2cc1C` [Compound 25, 6-chloro-7-(5,6-dimethyl-2-(thiazol-2-yl)-1H-benzo[d]imidazol-1-yl)quinazoline-2,4-diamine], the MIC in the assay on S. aureus (setting [1]) was 1 µg/mL (≈ 2.37 µM); with S. aureus (setting [2]) it was at most 0.125 µg/mL. Besides, the Ki turned out to be 7.6 nM at human DHFR and 0.011 nM on S. aurues DHFR (S. aureus DHFR).
`COc1ccccc1-c1ccc2c(N)nc(N)nc2c1` [Compound 1, 7-(2-methoxyphenyl)quinazoline-2,4-diamine]: the results for the MIC in the assay on S. aureus (setting [1]) and in the assay with S. aureus (setting [2]) were 4 µg/mL (≈ 15 µM) and 2 µg/mL (≈ 7.51 µM), respectively. Further, the results for the Ki at human DHFR and on S. aurues DHFR were 1140 nM and 2.7 nM, respectively.
Regarding `COCCn1c(-c2ccc3c(N)nc(N)nc3c2)nc2cc(C)c(C)cc21` [Compound 14, 7-(1-(2-methoxyethyl)-5,6-dimethyl-1H-benzo[d]-imidazol-2-yl)quinazoline-2,4-diamine], the MIC in the assay with S. aureus (setting [1]) and in the assay on S. aureus (setting [2]) was 4 µg/mL (≈ 11 µM) throughout. Besides, the Ki was 263 nM on human DHFR and 1.6 nM on S. aurues DHFR (S. aureus DHFR).
Take `CCOc1ccc2ccccc2c1-c1cc2nc(N)nc(N)c2cc1C` [Compound 31, 7-(2-ethoxynaphthalen-1-yl)-6-methylquinazoline-2,4-diamine]: the figures for the MIC in the assay with S. aureus (setting [1]) and in the assay on S. aureus (setting [2]) were 0.5 µg/mL (≈ 1.45 µM) and at most 0.125 µg/mL, respectively. Besides, the inhibition constant Ki was determined as 4.5 nM on human DHFR and 0.026 nM at S. aurues DHFR (S. aureus DHFR).
